# Molecular target: T1, human Kv3.2 channels (hKv3.2) (Homo sapiens, UniProt Q96PR1)
# T1 construct: expressed in transfected cells
# T1 sequence (Q96PR1 1-638): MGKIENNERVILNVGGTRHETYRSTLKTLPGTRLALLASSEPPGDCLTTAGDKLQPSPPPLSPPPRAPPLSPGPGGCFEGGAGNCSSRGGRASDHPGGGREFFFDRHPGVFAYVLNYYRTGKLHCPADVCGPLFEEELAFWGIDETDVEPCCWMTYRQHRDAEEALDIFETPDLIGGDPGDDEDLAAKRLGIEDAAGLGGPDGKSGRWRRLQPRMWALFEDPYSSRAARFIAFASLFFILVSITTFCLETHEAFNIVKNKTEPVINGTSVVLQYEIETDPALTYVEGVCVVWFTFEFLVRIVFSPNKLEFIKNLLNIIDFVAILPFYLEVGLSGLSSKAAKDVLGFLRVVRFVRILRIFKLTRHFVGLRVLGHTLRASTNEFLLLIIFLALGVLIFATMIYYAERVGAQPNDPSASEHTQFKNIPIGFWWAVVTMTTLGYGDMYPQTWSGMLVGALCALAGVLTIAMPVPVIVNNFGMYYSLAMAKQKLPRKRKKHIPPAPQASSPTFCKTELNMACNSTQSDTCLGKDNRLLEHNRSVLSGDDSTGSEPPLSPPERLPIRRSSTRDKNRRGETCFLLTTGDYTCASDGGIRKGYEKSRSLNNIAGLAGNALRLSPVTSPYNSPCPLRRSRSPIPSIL
# Test: Biological Example 1: hKv3.2 whole-cell currents, IonWorks Quattro planar array electrophysiology
# Format: cell-based
# Details: hKv3.2, -15 mV voltage step
# Source text: The ability of the compounds of the invention to modulate the voltage-gated potassium channel subtypes Kv3.2 or Kv3.1 may be determined using the following assay. Analogous methods may be used to investigate the ability of the compounds of the invention to modulate other channel subtypes, including Kv3.3 and Kv3.4.
# To assess compound effects on human Kv3.2 channels (hKv3.2), a stable cell line expressing hKv3.2 was created by transfecting Chinese Hamster Ovary (CHO)-K1 cells with a pClH5-hKv3.2 vector. Cells were cultured in DMEM/F12 medium supplemented by 10% Foetal Bovine Serum, lx non-essential amino acids (Invitrogen) and 500 ug/ml of Hygromycin-B (Invitrogen). Cells were grown and maintained at 37° C. in a humidified environment containing 5% CO2 in air.
# The day of the experiment, cells were removed from the incubator and the culture medium removed. Cells were washed with 5 ml of Dulbecco's PBS (DPBS) calcium and magnesium free and detached by the addition of 3 ml Versene (Invitrogen, Italy) followed by a brief incubation at 37° C. for 5 minutes. The flask was tapped to dislodge cells and 10 ml of DPBS containing calcium and magnesium was added to prepare a cell suspension. The cell suspension was then placed into a 15 ml centrifuge tube and centrifuged for 2 min at 1200 rpm. After centrifugation, the supernatant was removed and the cell pellet re-suspended in 4 ml of DPBS containing calcium and magnesium using a 5 ml pipette to break up the pellet. Cell suspension volume was then corrected to give a cell concentration for the assay of approximately 3 million cells per ml.
# Experiments were conducted at room temperature using IonWorks Quattro™ planar array electrophysiology technology (Molecular Devices Corp.) with PatchPlate™ PPC. Stimulation protocols and data acquisition were carried out using a microcomputer (Dell Pentium 4). Planar electrode hole resistances (Rp) were determined by applying a 10 mV voltage step across each well. These measurements were performed before cell addition. […] Following this, amphotericin-B solution was added to the intracellular face of the electrode to achieve intracellular access. Cells were held at −70 mV. Leak subtraction was conducted in all experiments by applying 50 ms hyperpolarizing (10 mV) prepulses to evoke leak currents followed by a 20 ms period at the holding potential before test pulses. From the holding potential of −70 mV, a first test pulse to −15 mV was applied for 100 ms and following a further 100 ms at −70 mV, a second pulse to 40 mV was applied for 50 ms. Cells were then maintained for a further 100 ms at −100 mV and then a voltage ramp from −100 mV to 40 mV was applied over 200 ms. Test pulses protocol may be performed in the absence (pre-read) and presence (post-read) of the test compound. Pre- and post-reads may be separated by the compound addition followed by a 3 minute incubation.
# The intracellular solution contained the following (in mM): K-gluconate 100, KCl 54, MgCl2 3.2, HEPES 5, adjusted to pH 7.3 with KOH. Amphotericin-B solution was prepared as […] stock solution in DMSO and diluted to a final working concentration of 0.1 mg/ml in intracellular solution.
# Compounds of the invention (or reference compounds such as N-cyclohexyl-N-[(7,8-dimethyl-2-oxo-1,2-dihydro-3-quinolinyl)methyl]-N′-phenylurea were dissolved in dimethylsulfoxide (DMSO) at a stock concentration of 10 mM. These solutions were further diluted with DMSO using a Biomek FX
# Each dilution (1 μL) was transferred to another compound plate and external solution containing 0.05% pluronic acid (66 μL) was added. 3.5 μL from each plate containing a compound of the invention was added and incubated with the cells during the lonWorks Quattro™ experiment. The final assay dilution was 200 and the final compound concentrations were in the range 50 μM to 50 nM.
# [1] = compound 0.4 μM (concentration giving ~0.3 nA current at end of pulse)
# [2] = compound 1.6 μM (concentration giving ~0.3 nA current at end of pulse)
# [3] = compound 0.8 μM (concentration giving ~0.3 nA current at end of pulse)
structure (smiles),measurement,setting,value
"CC[C@H]1NC(=O)N(c2ccc(Oc3ccc(C)c4c3C(C)(C)CO4)nc2)C1=O [Example 7, (5R)-5-ethyl-3-{6-[(3,3,7-trimethyl-2,3-dihydro-1-benzofuran-4-yl)oxy]-3-pyridinyl}-2,4-imidazolidinedione]",Tauact mean,[1],28.0 ms
"CC[C@H]1NC(=O)N(c2cnc(Oc3ccc(C)c4c3C(C)(C)CO4)nc2)C1=O [Example 8, (5R)-5-ethyl-3-{2-[(3,3,7-trimethyl-2,3-dihydro-1-benzofuran-4-yl)oxy]-5-pyrimidinyl}-2,4-imidazolidinedione]",Tauact mean,[2],25.0 ms
"CC[C@@]1(C)NC(=O)N(c2cnc(Oc3ccc(C)c4c3OC(F)(F)O4)nc2)C1=O [Example 3, (5R)-3-{2-[(2,2-difluoro-7-methyl-1,3-benzodioxol-4-yl)oxy]-5-pyrimidinyl}-5-ethyl-5-methyl-2,4-imidazolidinedione]",Tauact mean,compound 25.0 μM (concentration giving ~0.3 nA current at end of pulse),8.9 ms
"CC[C@@]1(C)NC(=O)N(c2ccc(Oc3ccc(C)c(OC)c3)nc2)C1=O [RE2, (5R)-5-ethyl-5-methyl-3-(6-{[4-methyl-3-(methyloxy)phenyl]oxy}-3-pyridinyl)-2,4-imidazolidinedione, reference compound]",Tauact mean,compound 12.5 μM (concentration giving ~0.3 nA current at end of pulse),7.3 ms
"Cc1ccc(Oc2ccc(N3C(=O)NC(C)(C)C3=O)cn2)c2c1OCC21CC1 [Example 10, 5,5-dimethyl-3-[6-(7-methylspiro[2H-benzofuran-3,1′-cyclopropane]-4-yl)oxy-3-pyridyl]imidazolidine-2,4-dione]",Tauact mean,[2],17.3 ms
"CC[C@H]1NC(=O)N(c2ccc(Oc3ccc(C)c(OC)c3)nc2)C1=O [RE1, (5R)-5-ethyl-3-(6-{[4-methyl-3-(methyloxy)phenyl]oxy}-3-pyridinyl)-2,4-imidazolidinedione, reference compound]",Tauact mean,compound 6.25 μM (concentration giving ~0.3 nA current at end of pulse),9.9 ms
"CC[C@H]1NC(=O)N(c2cnc(Oc3ccc(C)c4c3C3(CC3)CO4)nc2)C1=O [Example 5, (5R)-5-ethyl-3-[2-(7-methylspiro[2H-benzofuran-3,1′-cyclopropane]-4-yl)oxypyrimidin-5-yl]imidazolidine-2,4-dione]",Tauact mean,[3],31.5 ms
"CC[C@@]1(C)NC(=O)N(c2cnc(Oc3ccc(C)c4c3C(C)(C)CO4)nc2)C1=O [Example 2, (5R)-5-ethyl-5-methyl-3-{2-[(3,3,7-trimethyl-2,3-dihydro-1-benzofuran-4-yl)oxy]-5-pyrimidinyl}-2,4-imidazolidinedione]",Tauact mean,[2],14.8 ms
"CC[C@@]1(C)NC(=O)N(c2cnc(Oc3ccc(C)c4c3C3(CC3)CO4)nc2)C1=O [Example 1, (5R)-5-ethyl-5-methyl-3-[2-(7-methylspiro[2H-benzofuran-3,1′-cyclopropane]-4-yl)oxypyrimidin-5-yl]imidazolidine-2,4-dione]",Tauact mean,[2],21.3 ms
"CC[C@H]1NC(=O)N(c2ccc(Oc3ccc(C#N)cc3C3CC3)nc2)C1=O [RE5, 3-cyclopropyl-4-({5-[(4R)-4-ethyl-2,5-dioxo-1-imidazolidinyl]-2-pyridinyl}oxy)benzonitrile, reference compound]",Tauact mean,compound 3.1 μM (concentration giving ~0.3 nA current at end of pulse),13.0 ms
"CC[C@H]1NC(=O)N(c2ccc(Oc3ccc(C)c4c3C3(CC3)CO4)nc2)C1=O [Example 6, (5R)-5-ethyl-3-[6-(7-methylspiro[2H-benzofuran-3,1′-cyclopropane]-4-yl)oxy-3-pyridyl]imidazolidine-2,4-dione]",Tauact mean,[1],34.8 ms
"CC[C@H]1NC(=O)N(c2ccc(Oc3ccc(C#N)cc3C(C)(C)C)nc2)C1=O [RE3, 3-(1,1-dimethylethyl)-4-({5-[(4R)-4-ethyl-2,5-dioxo-1-imidazolidinyl]-2-pyridinyl}oxy)benzonitrile, reference compound]",Tauact mean,compound 0.2 μM (concentration giving ~0.3 nA current at end of pulse),23.0 ms
"CC[C@H]1NC(=O)N(c2ccc(Oc3ccc(C#N)c(C(C)C)c3)nc2)C1=O [RE4, 4-({5-[(4R)-4-ethyl-2,5-dioxo-1-imidazolidinyl]-2-pyridinyl}oxy)-2-(1-methylethyl)benzonitrile, reference compound]",Tauact mean,[3],9.2 ms

# Reference: patent US10098881B2, “Compounds” (AUTIFONY THERAPEUTICS LIMITED, priority 2011, dated 2018)
